{"source": "patent US20100226991A1", "about": "“SOLID INORGANIC/ORGANIC HYBRID WITH MODIFIED SURFACE” (CENTRE NATIONAL DE LA RECHERCHE SCIENTIFIQUE - CNRS-, priority 2007, published 2010)", "key": {"[1]": {"settings": "20° C.; cited from earlier work"}, "rats": {"test_system": "rats", "settings": "cited from earlier work"}, "[2]": {"assay": "Solubility of busulfan in various solvents", "assay_type": "physicochemical", "source_text": "The solvents chosen for the impregnation are those in which busulfan has appreciable solubility (acetone, acetonitrile, chloroform, dichloromethane, dimethyl carbonate) (Table 18)."}, "Female Wistar rats": {"test_system": "Female Wistar rats", "settings": "rat, in vivo", "description": "The animals used for the experiment are […] female Wistar rats weighing 161.36±16.1 g.\nAll the tests were performed in the animal house of the University Pharmacy school under temperature and humidity conditions, and after 3 days of adapting the animals to the animal house (3 days).\nFor the acute toxicity tests, a single intrajugular injection of the materials MIL-88A (150 and 500 nm), MIL-88Bt (50 and 140 nm) or 5% glucose (control group) is performed on 4 groups (at 1 day, 1 week, 1 month and 3 months, respectively) of 8 rats chosen at random and anesthetized with isoflurane.\nThe change in weight and the behavior of the animals were monitored. […]\nMoreover, each group of animals was sacrificed after 1 day, 1 week, 1 and 3 months, respectively. The animals were anesthetized with isoflurane and the spleen, kidneys, liver and heart were then removed and stored for histological studies. Four livers were also used to perform a microsomal extraction in order to measure the activation of cytochrome P450. […]"}, "Cytochrome P450": {"test_system": "Cytochrome P450", "set-up": "species or system Wistar rats", "settings": "rat, in vivo", "source_text": "Moreover, each group of animals was sacrificed after 1 day, 1 week, 1 and 3 months, respectively. The animals were anesthetized with isoflurane and the spleen, kidneys, liver and heart were then removed and stored for histological studies. Four livers were also used to perform a microsomal extraction in order to measure the activation of cytochrome P450.\nCytochrome P450 is an enzyme associated with the […] of the smooth endoplasmic reticulum, which is highly involved in the degradation of exogenous molecules. This enzyme has very low substrate specificity and is capable of catalyzing the transformation of newly synthesized compounds such as medicaments. The majority of the P450 cytochromes can be induced or repressed, at the transcriptional level, by various xenobiotics; this is often the cause of side effects of medicaments. Assaying this enzyme makes it possible to determine whether the MOF material used is metabolized by cytochrome P450, in which case it will activate or inhibit its activity.\nThe amount of cytochrome can be interpreted only on condition that it has been related to the total amount of protein contained in each sample. Assay of the protein contained in the sample was performed by means of a BCA kit supplied by Pierce (batch #HI106096). […]"}}, "data": [{"molecule": "COc1ccc(C(=O)c2ccccc2)c(O)c1", "note": "[Benzophenone-3, 2-hydroxy-4-methoxybenzophenone]", "values": [{"measurement": "solubility in water", "setting": "[1]", "value": 3.7, "unit": "µg/mL"}]}, {"molecule": "COc1cc(O)c(C(=O)c2ccccc2)cc1S(=O)(=O)O", "note": "[Benzophenone-4, 2-hydroxy-4-methoxybenzophenone-5-sulfonic acid]", "values": [{"measurement": "solubility in water", "setting": "[1]", "value": 100000, "unit": "µg/mL"}]}, {"molecule": "[Cl][Zr]([Cl])([Cl])[Cl]", "note": "[ZrCl4]", "values": [{"measurement": "oral lethal dose 50 (LD50)", "setting": "rats", "value": 1700, "unit": "mg/kg"}]}, {"molecule": "CS(=O)(=O)OCCCCOS(C)(=O)=O", "note": "[busulfan, 1,4-butanediol dimethylsulfonate]", "values": [{"measurement": "solubility", "setting": "[2]; acetone, organic solvent or mixture", "value": 20000, "unit": "µg/mL"}, {"measurement": "solubility", "setting": "[2]; acetonitrile, organic solvent or mixture", "value": 30000, "unit": "µg/mL"}, {"measurement": "solubility", "setting": "[2]; chloroform, organic solvent or mixture", "value": 8000, "unit": "µg/mL"}, {"measurement": "solubility", "setting": "[2]; dichloromethane, organic solvent or mixture", "value": 10000, "unit": "µg/mL"}, {"measurement": "solubility", "setting": "[2]; dimethyl carbonate, organic solvent or mixture", "value": 13000, "unit": "µg/mL"}, {"measurement": "solubility", "setting": "[2]; ethanol, organic solvent or mixture", "value": "< 4000", "unit": "µg/mL"}, {"measurement": "solubility", "setting": "[2]; ether, organic solvent or mixture", "value": "< 4000", "unit": "µg/mL"}, {"measurement": "solubility", "setting": "[2]; ethyl acetate, organic solvent or mixture", "value": 6600, "unit": "µg/mL"}, {"measurement": "solubility", "setting": "[2]; hexane, organic solvent or mixture", "value": "< 4000", "unit": "µg/mL"}, {"measurement": "solubility", "setting": "[2]; methanol, organic solvent or mixture", "value": "< 4000", "unit": "µg/mL"}, {"measurement": "solubility", "setting": "[2]; tetrahydrofuran, organic solvent or mixture", "value": "~5000", "unit": "µg/mL"}, {"measurement": "solubility", "setting": "[2]; toluene, organic solvent or mixture", "value": "~4000", "unit": "µg/mL"}, {"measurement": "solubility", "setting": "[2]; water", "value": 100, "unit": "µg/mL"}]}, {"molecule": "Fe3O[O2C—C2H2—CO2]3.X.nH2O [MIL-88A]", "values": [{"measurement": "liver weight", "setting": "Female Wistar rats", "value": "returns to normal for MIL-88A after 3 months"}, {"measurement": "seric iron", "setting": "Female Wistar rats", "value": "recovered a seric iron concentration comparable to that of the control group"}, {"measurement": "signs of severe toxicity", "setting": "Female Wistar rats", "value": "do not induce any sign of severe toxicity"}, {"measurement": "weight change of the animals", "setting": "Female Wistar rats", "value": "does not produce a significant variation in weight over time"}, {"measurement": "metabolism by cytochrome P450 (cytochrome activity vs glucose control)", "setting": "Cytochrome P450", "value": "not metabolized by Cyp450"}]}, {"molecule": "Fe3O[O2C—C6(CH3)4—CO2]3.OH.nH2O [MIL-88Bt]", "values": [{"measurement": "liver weight", "setting": "Female Wistar rats", "value": "the weight remains high"}, {"measurement": "seric iron", "setting": "Female Wistar rats", "value": "recovered a seric iron concentration comparable to that of the control group"}, {"measurement": "signs of severe toxicity", "setting": "Female Wistar rats", "value": "do not induce any sign of severe toxicity"}, {"measurement": "weight change of the animals", "setting": "Female Wistar rats", "value": "does not produce a significant variation in weight over time"}, {"measurement": "metabolism by cytochrome P450 (cytochrome activity vs glucose control)", "setting": "Cytochrome P450", "value": "does not appear to be metabolized by Cyp450"}]}]}
